For orientation: MIC means the lowest concentration that inhibits growth of the organism. The low end stands for a more susceptible organism, the high end for a less susceptible organism.

What all share (format): functional
The test system of one assay is Enterococcus faecium. Description: Antibacterial activity against Enterococcus faecium by CLSI M100-S19 method.
A further assay relates to Enterococcus. In words: Antibacterial activity against vancomycin-resistant Enterococcus.
A further assay has as its system Staphylococcus. Description: Antibacterial activity against methicillin-resistant Staphylococcus.
For the next assay, the system named is Enterococcus faecalis. In words: Antibacterial activity against Enterococcus faecalis ATCC 29212 by CLSI M100-S19 method.
The subject of the next assay is Streptococcus pyogenes. Description: Antibacterial activity against Streptococcus pyogenes ATCC BAA-595 by CLSI M100-S19 method.
The subject of the next assay is Staphylococcus aureus. In words: Antibacterial activity against methicillin-resistant Staphylococcus aureus by CLSI M100-S19 method.

Converted amounts (≈) assume the structure as drawn.

Consider `CNC(=O)C[C@@H]1NC(=O)c2csc(n2)-c2ccc(-c3nc(C4=N[C@H](C(=O)N5CCC[C@H]5C(N)=O)CO4)cs3)nc2-c2csc(n2)-c2csc(n2)[C@H]([C@@H](O)c2ccccc2)NC(=O)CNC(=O)c2nc(sc2COC)[C@H](C(C)C)NC(=O)c2nc1sc2C`, for which the MIC in the assay with Enterococcus faecium amounted to 0.25 µg/mL (≈ 0.194 µM); against Enterococcus it was 1 µg/mL (≈ 0.775 µM); in the assay with Staphylococcus it was 1 µg/mL (≈ 0.775 µM); in the assay on Enterococcus faecalis, 0.5 µg/mL (≈ 0.387 µM); against Streptococcus pyogenes, 1 µg/mL (≈ 0.775 µM); in the assay on Staphylococcus aureus, 0.25 µg/mL (≈ 0.194 µM).

`CNC(=O)C[C@@H]1NC(=O)c2csc(n2)-c2ccc(-c3nc(NC(=O)OC(C)(C)C)cs3)nc2-c2csc(n2)-c2csc(n2)[C@H]([C@@H](O)c2ccccc2)NC(=O)CNC(=O)c2nc(sc2COC)[C@H](C(C)C)NC(=O)c2nc1sc2C`: the MIC against Enterococcus faecium, against Enterococcus faecalis, against Streptococcus pyogenes and against Staphylococcus aureus was more than 32 µg/mL in each case.

`CNC(=O)C[C@@H]1NC(=O)c2csc(n2)-c2ccc(C(N)=O)nc2-c2csc(n2)-c2csc(n2)[C@H]([C@@H](O)c2ccccc2)NC(=O)CNC(=O)c2nc(sc2COC)[C@H](C(C)C)NC(=O)c2nc1sc2C`: the MIC was more than 32 µg/mL in the assay on Enterococcus faecium, 32 µg/mL (≈ 30.7 µM) against Enterococcus faecalis, more than 32 µg/mL against Streptococcus pyogenes and more than 32 µg/mL against Staphylococcus aureus.

Regarding `CNC(=O)C[C@@H]1NC(=O)c2csc(n2)-c2ccc(-c3nc(NC(C)=O)cs3)nc2-c2csc(n2)-c2csc(n2)[C@H]([C@@H](O)c2ccccc2)NC(=O)CNC(=O)c2nc(sc2COC)[C@H](C(C)C)NC(=O)c2nc1sc2C`, the MIC with Enterococcus faecium was 1 µg/mL (≈ 0.878 µM); in the assay with Enterococcus faecalis, 1 µg/mL (≈ 0.878 µM); against Streptococcus pyogenes it was more than 32 µg/mL; in the assay on Staphylococcus aureus it was 2 µg/mL (≈ 1.76 µM).

For the compound `CNC(=O)C[C@@H]1NC(=O)c2csc(n2)-c2ccc(-c3nc(NS(C)(=O)=O)cs3)nc2-c2csc(n2)-c2csc(n2)[C@H]([C@@H](O)c2ccccc2)NC(=O)CNC(=O)c2nc(sc2COC)[C@H](C(C)C)NC(=O)c2nc1sc2C`, the MIC with Enterococcus faecium was 4 µg/mL (≈ 3.41 µM); with Enterococcus faecalis it was 2 µg/mL (≈ 1.7 µM); against Streptococcus pyogenes it was more than 32 µg/mL; against Staphylococcus aureus it was 2 µg/mL (≈ 1.7 µM).
